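Each compound was tested at five concentrations against cells in 96-well plates for 48 hours. The concentration for 50% growth inhibition is given as GI50.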 Calls of active or inactive are those of the source. Rule as the data show it: active = GI50 up to about 1.1 µM and inactive = higher.
Key:
Assay in all cases: NCI-60 cell line screen, 48 h
[1] = system: U-251
[2] = system: NCI/ADR-RES
[3] = system: OVCAR-3
[4] = system: 786-0
[5] = system: SK-MEL-5
[6] = system: RXF 393
[7] = system: SNB-75
[8] = system: LOX IMVI
[9] = system: HOP-92
[10] = system: Hs-578T
[11] = system: HCT-15
[12] = system: SNB-19
[13] = system: SK-MEL-2
[14] = system: MOLT-4
[15] = system: MDA-MB-231
[16] = system: SK-OV-3
[17] = system: TK-10
[18] = system: KM12
[19] = system: K562
[20] = system: MDA-N
[21] = system: SW-620
[22] = system: DU-145
[23] = system: NCI-H522
[24] = system: UACC-257
[25] = system: NCI-H460
[26] = system: HCT-116
[27] = system: CAKI-1
[28] = system: UACC-62
[29] = system: HL-60
[30] = system: MCF7
[31] = system: HT-29
[32] = system: M14
[33] = system: NCI-H226
[34] = system: HOP-62
[35] = system: SF-295
[36] = system: BT-549
[37] = system: ACHN
[38] = system: OVCAR-5
[39] = system: UO-31
[40] = system: OVCAR-8
[41] = system: A549
[42] = system: OVCAR-4
[43] = system: CCRF-CEM
[44] = system: IGROV-1
[45] = system: COLO 205
[46] = system: A498
[47] = system: EKVX
[48] = system: PC-3
[49] = system: SK-MEL-28
[50] = system: HCC 2998
[51] = system: MDA-MB-435
[52] = system: NCI-H23
[53] = system: RPMI-8226
[54] = system: SR
[55] = system: SF-268
[56] = system: SN12C
[57] = system: SF-539
[58] = system: Malme-3M

Cc1ccc2nc(-n3c(/C=C/c4ccccc4O)nc4ccccc4c3=O)sc2c1
GI50 [1]: > 100 µM (inactive) | GI50 [2]: > 100 µM (inactive) | GI50 [3]: > 100 µM (inactive) | GI50 [4]: > 100 µM (inactive) | GI50 [5]: > 100 µM (inactive) | GI50 [6]: > 100 µM (inactive) | GI50 [7]: > 100 µM (inactive) | GI50 [8]: > 100 µM (inactive) | GI50 [9]: > 100 µM (inactive) | GI50 [10]: > 100 µM (inactive) | GI50 [11]: > 100 µM | GI50 [12]: > 100 µM (inactive) | GI50 [13]: > 100 µM (inactive) | GI50 [14]: > 100 µM (inactive) | GI50 [15]: > 100 µM (inactive) | GI50 [16]: > 100 µM (inactive) | GI50 [17]: > 100 µM (inactive) | GI50 [18]: > 100 µM (inactive) | GI50 [19]: > 100 µM (inactive) | GI50 [20]: > 100 µM (inactive) | GI50 [21]: > 100 µM (inactive) | GI50 [22]: > 100 µM (inactive) | GI50 [23]: > 100 µM (inactive) | GI50 [24]: > 100 µM (inactive) | GI50 [25]: > 100 µM (inactive) | GI50 [26]: > 100 µM (inactive) | GI50 [27]: > 100 µM (inactive) | GI50 [28]: > 100 µM (inactive) | GI50 [29]: > 100 µM (inactive) | GI50 [30]: > 100 µM (inactive) | GI50 [31]: > 100 µM (inactive) | GI50 [32]: > 100 µM (inactive) | GI50 [33]: > 100 µM (inactive) | GI50 [34]: > 100 µM (inactive) | GI50 [35]: > 100 µM (inactive) | GI50 [36]: > 100 µM (inactive) | GI50 [37]: > 100 µM (inactive) | GI50 [38]: > 100 µM (inactive) | GI50 [39]: > 100 µM (inactive) | GI50 [40]: > 100 µM (inactive) | GI50 [41]: > 100 µM (inactive) | GI50 [42]: > 100 µM (inactive) | GI50 [43]: 16.5 µM (inactive) | GI50 [44]: > 100 µM (inactive) | GI50 [45]: > 100 µM (inactive) | GI50 [46]: > 100 µM (inactive) | GI50 [47]: 19.8 µM (inactive) | GI50 [48]: > 100 µM (inactive) | GI50 [49]: > 100 µM (inactive) | GI50 [50]: > 100 µM (inactive) | GI50 [51]: > 100 µM (inactive) | GI50 [52]: > 100 µM (inactive) | GI50 [53]: 76.4 µM (inactive)

C=C1C[C@]23CC[C@@H]4C(CO)(CO)CC(=O)C[C@]4(C)[C@@H]2C(O)C[C@H]1C3 (some centres not stated)
GI50 [1]: > 100 µM (inactive) | GI50 [54]: > 100 µM (inactive) | GI50 [2]: > 100 µM (inactive) | GI50 [3]: > 100 µM (inactive) | GI50 [4]: > 100 µM (inactive) | GI50 [55]: > 100 µM (inactive) | GI50 [7]: > 100 µM (inactive) | GI50 [8]: > 100 µM (inactive) | GI50 [9]: > 100 µM (inactive) | GI50 [10]: > 100 µM (inactive) | GI50 [11]: > 100 µM | GI50 [12]: > 100 µM (inactive) | GI50 [13]: > 100 µM (inactive) | GI50 [14]: > 100 µM (inactive) | GI50 [15]: > 100 µM (inactive) | GI50 [16]: > 100 µM (inactive) | GI50 [17]: > 100 µM (inactive) | GI50 [18]: > 100 µM (inactive) | GI50 [19]: > 100 µM (inactive) | GI50 [20]: > 100 µM (inactive) | GI50 [21]: > 100 µM (inactive) | GI50 [22]: > 100 µM (inactive) | GI50 [23]: > 100 µM (inactive) | GI50 [24]: > 100 µM (inactive) | GI50 [25]: > 100 µM (inactive) | GI50 [26]: > 100 µM (inactive) | GI50 [56]: > 100 µM (inactive) | GI50 [27]: > 100 µM (inactive) | GI50 [28]: > 100 µM (inactive) | GI50 [29]: > 100 µM (inactive) | GI50 [30]: > 100 µM (inactive) | GI50 [31]: > 100 µM (inactive) | GI50 [32]: > 100 µM (inactive) | GI50 [33]: > 100 µM (inactive) | GI50 [34]: > 100 µM (inactive) | GI50 [35]: > 100 µM (inactive) | GI50 [36]: > 100 µM (inactive) | GI50 [37]: > 100 µM (inactive) | GI50 [38]: > 100 µM (inactive) | GI50 [39]: > 100 µM (inactive) | GI50 [40]: > 100 µM (inactive) | GI50 [41]: > 100 µM (inactive) | GI50 [57]: > 100 µM (inactive) | GI50 [42]: > 100 µM (inactive) | GI50 [58]: > 100 µM (inactive) | GI50 [43]: > 100 µM (inactive) | GI50 [44]: > 100 µM (inactive) | GI50 [45]: > 100 µM (inactive) | GI50 [47]: > 100 µM (inactive) | GI50 [48]: > 100 µM (inactive) | GI50 [49]: > 100 µM (inactive) | GI50 [50]: > 100 µM (inactive) | GI50 [51]: > 100 µM (inactive) | GI50 [52]: > 100 µM (inactive) | GI50 [53]: > 100 µM (inactive)

Cc1cc(/N=N/c2ccccc2C)ccc1N
GI50 [1]: 14.3 µM (inactive) | GI50 [54]: 12.7 µM (inactive) | GI50 [2]: 11.1 µM (inactive) | GI50 [3]: 7.35 µM (inactive) | GI50 [4]: 10.5 µM (inactive) | GI50 [5]: 15.8 µM (inactive) | GI50 [6]: 6.82 µM (inactive) | GI50 [7]: 5.94 µM (inactive) | GI50 [8]: 11.4 µM (inactive) | GI50 [9]: 10.5 µM (inactive) | GI50 [10]: 15.7 µM (inactive) | GI50 [11]: 12.1 µM | GI50 [12]: 31 µM (inactive) | GI50 [13]: 15.6 µM (inactive) | GI50 [14]: 2.65 µM (inactive) | GI50 [15]: 14.8 µM (inactive) | GI50 [16]: 24.8 µM (inactive) | GI50 [17]: 19.6 µM (inactive) | GI50 [18]: 10.6 µM (inactive) | GI50 [19]: 11.4 µM (inactive) | GI50 [20]: 18.5 µM (inactive) | GI50 [21]: 19.6 µM (inactive) | GI50 [24]: 17.9 µM (inactive) | GI50 [25]: 3.19 µM (inactive) | GI50 [26]: 15.5 µM (inactive) | GI50 [56]: 12.4 µM (inactive) | GI50 [27]: 15.3 µM (inactive) | GI50 [28]: 12.5 µM (inactive) | GI50 [29]: 2.96 µM (inactive) | GI50 [30]: 4.06 µM (inactive) | GI50 [31]: 17.3 µM (inactive) | GI50 [32]: 12.4 µM (inactive) | GI50 [33]: 13.9 µM (inactive) | GI50 [34]: 5.6 µM (inactive) | GI50 [35]: 11.5 µM (inactive) | GI50 [36]: 10.6 µM (inactive) | GI50 [37]: 5.52 µM (inactive) | GI50 [38]: 17.9 µM (inactive) | GI50 [39]: 3.02 µM (inactive) | GI50 [40]: 15.2 µM (inactive) | GI50 [41]: 4.32 µM (inactive) | GI50 [57]: 2.54 µM (inactive) | GI50 [42]: 19.4 µM (inactive) | GI50 [58]: 19 µM (inactive) | GI50 [43]: 1.42 µM (inactive) | GI50 [44]: 14.6 µM (inactive) | GI50 [45]: 18.4 µM (inactive) | GI50 [46]: 24.3 µM (inactive) | GI50 [47]: 15.5 µM (inactive) | GI50 [48]: 11.1 µM (inactive) | GI50 [49]: 21 µM (inactive) | GI50 [50]: 12.4 µM (inactive) | GI50 [51]: 19.5 µM (inactive) | GI50 [52]: 3.99 µM (inactive)

Source: ChEMBL document CHEMBL1201862, “PubChem BioAssay data set” (2004)
